Data reported in patent publication US20240132457A1, “3-(2-(BENZO[D]THIAZOL-2-YL)-2-(PHENYLSUFONAMIDO)ETHYL)BENZIMIDAMIDE DERIVATIVES AND RELATED COMPOUNDS AS TMPRSS2 INHIBITORS FOR THE TREATMENT OF VIRAL INFECTIONS” (INTEGERBIO, INC., priority 2020, published 2024).

How the values were obtained:
Type in all cases: biochemical
[1] = target: T1, Mpro (Severe acute respiratory syndrome coronavirus 2, UniProt P0DTD1); assay: Non-TMPRSS2 protease panel: Mpro; conditions: 10-dose, 3-fold from 10 μM
T1 construct: MMP 14, Mpro, Plasma Kallikrein
Protocol: (§1) Biochemical activity of compound 1 (racemic mixture, batch 1), compound 3 (racemic), compound 11, and compound 2 (enantiomer 1, batch 1) in proteases indicated in Table 21, Table 22, Table 23, and Table 24, respectively, were measured by testing the compounds in a 10-dose IC50 with a 3-fold series dilution starting at 10 μM against the proteases. The protease activities were monitored as a time-course measurement of the increase in fluorescence signal from fluorescently-labeled peptide substrate, and initial linear portion of slope (signal/min) was analyzed. The curve fits were performed when the activities at the highest concentration of compounds were less than 65%.

[2] = target: Plasma Kallikrein (Homo sapiens, UniProt P03952); assay: Non-TMPRSS2 protease panel: Plasma Kallikrein; conditions: 10-dose, 3-fold from 10 μM
Protocol: as §1

[3] = target: Cathepsin B (Homo sapiens, UniProt P07858); assay: Non-TMPRSS2 protease panel: Cathepsin B; conditions: 10-dose, 3-fold from 10 μM
Protocol: as §1

[4] = target: MMP 14 (Homo sapiens, UniProt P50281); assay: Non-TMPRSS2 protease panel: MMP 14; conditions: 10-dose, 3-fold from 10 μM
Protocol: as §1

[5] = target: T2, Recombinant human TMPRSS2 protein (106-492 aa) (Homo sapiens, UniProt O15393); assay: TMPRSS2 Assay 1 (Example 41), fluorogenic Boc-Gln-Ala-Arg-AMC cleavage; conditions: TMPRSS2 10 nM, substrate 25 μM, 20 min pre-incubation
T2 construct: Human TMPRSS2-(AA 106-492)-; purchased CusaBio CSB-YP023924HU; host or cells: yeast
Protocol: The enzyme (TMPRSS2, CusaBio cat #CSB-YP023924HU. Recombinant human TMPRSS2 protein (106-492 aa)N-terminal 6×His-tagged (“6×His” disclosed as SEQ ID NO: 4), expressed in yeast cells; MW=44.8 kDa, lyophilized from 20 mM: Tris HCl, 0.5 M NaCl, 6% Trehalose, pH 8.0, >85% purity as determined by SDS-PAGE. Uniprot: 015393; 10 nM in the reaction) and substrate (Boc-Gln-Ala-Arg-AMC; Enzo Cat #BML-P237-0005, MW=581.76 Da. 25 μM in the reaction) were prepared in Reaction Buffer (50 mM Tris-HCl pH 8, 150 mM NaCl, 0.005% Brij35, 1% DMSO). After the enzyme solution was delivered into the reaction well, the compounds in DMSO were delivered to the reaction mixture by using Acoustic Technology (Echo 550, LabCyte Inc. Sunnyvale, CA) in nanoliter range. After 20 min pre-incubation, the substrate solution was delivered into the reaction well to initiate the reaction. The enzyme activities were monitored every 5 min as a time-course measurement of the increase in fluorescence signal from fluorescently-labeled peptide substrate for 120 min. at room temperature. Data was analyzed by taking slope*(signal/time) of linear portion of measurement. The slope was calculated using Excel, and the curve fits were performed using Prism software.

[6] = target: T3, Kallikrein 13 (Homo sapiens, UniProt Q9UKR3); assay: Non-TMPRSS2 protease panel: Kallikrein 13; conditions: 10-dose, 3-fold from 10 μM
T3 sequence (Q9UKR3 17-277): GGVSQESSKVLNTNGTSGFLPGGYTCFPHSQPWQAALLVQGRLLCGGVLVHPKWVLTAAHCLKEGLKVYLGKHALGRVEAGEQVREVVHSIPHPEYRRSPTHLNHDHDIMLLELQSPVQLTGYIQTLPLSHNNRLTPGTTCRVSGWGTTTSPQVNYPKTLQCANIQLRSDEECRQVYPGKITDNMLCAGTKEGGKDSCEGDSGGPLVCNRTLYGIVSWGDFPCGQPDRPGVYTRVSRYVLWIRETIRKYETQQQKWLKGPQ
Protocol: as §1

[7] = target: T4, PLpro (Severe acute respiratory syndrome coronavirus 2, UniProt P0DTD1); assay: Non-TMPRSS2 protease panel: PLpro; conditions: 10-dose, 3-fold from 10 μM
T4 construct: Plasma Kallikrein, Plasmin, Plpro, TACE
Protocol: as §1

[8] = target: Urokinase (Homo sapiens, UniProt P00749); assay: Non-TMPRSS2 protease panel: Urokinase; conditions: 10-dose, 3-fold from 10 μM
Protocol: as §1

[9] = target: T5, MMP 7 (Homo sapiens, UniProt P09237); assay: Non-TMPRSS2 protease panel: MMP 7; conditions: 10-dose, 3-fold from 10 μM
T5 sequence (P09237 95-267): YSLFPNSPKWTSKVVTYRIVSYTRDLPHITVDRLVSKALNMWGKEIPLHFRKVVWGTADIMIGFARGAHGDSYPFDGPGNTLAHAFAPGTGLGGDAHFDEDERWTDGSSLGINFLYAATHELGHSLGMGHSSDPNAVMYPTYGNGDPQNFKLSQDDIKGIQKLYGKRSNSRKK
Protocol: as §1

[10] = target: T6, Kallikrein 5 (Homo sapiens, UniProt Q9Y337); assay: Non-TMPRSS2 protease panel: Kallikrein 5; conditions: 10-dose, 3-fold from 10 μM
T6 sequence (Q9Y337 23-293): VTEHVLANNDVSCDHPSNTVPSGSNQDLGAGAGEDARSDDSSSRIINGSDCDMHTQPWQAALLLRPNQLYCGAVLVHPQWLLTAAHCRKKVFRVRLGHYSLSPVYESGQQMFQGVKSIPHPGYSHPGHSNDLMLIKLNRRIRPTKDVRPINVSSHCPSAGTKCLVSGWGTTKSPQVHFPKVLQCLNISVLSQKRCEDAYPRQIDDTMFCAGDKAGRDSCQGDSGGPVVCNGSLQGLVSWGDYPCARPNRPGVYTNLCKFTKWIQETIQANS
Protocol: as §1

T2 sequence (O15393 106-492): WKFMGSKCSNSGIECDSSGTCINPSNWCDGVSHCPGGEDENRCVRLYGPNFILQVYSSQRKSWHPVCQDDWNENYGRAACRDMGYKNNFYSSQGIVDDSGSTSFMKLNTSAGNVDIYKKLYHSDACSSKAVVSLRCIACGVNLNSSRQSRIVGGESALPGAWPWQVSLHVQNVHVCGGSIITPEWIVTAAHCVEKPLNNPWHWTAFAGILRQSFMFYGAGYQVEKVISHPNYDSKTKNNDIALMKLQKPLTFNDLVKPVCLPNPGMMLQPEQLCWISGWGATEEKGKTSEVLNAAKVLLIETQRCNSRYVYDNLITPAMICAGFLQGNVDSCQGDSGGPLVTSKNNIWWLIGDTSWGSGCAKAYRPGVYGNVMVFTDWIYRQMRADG
Sequence of Plasma Kallikrein (P03952 391-638 limits assumed): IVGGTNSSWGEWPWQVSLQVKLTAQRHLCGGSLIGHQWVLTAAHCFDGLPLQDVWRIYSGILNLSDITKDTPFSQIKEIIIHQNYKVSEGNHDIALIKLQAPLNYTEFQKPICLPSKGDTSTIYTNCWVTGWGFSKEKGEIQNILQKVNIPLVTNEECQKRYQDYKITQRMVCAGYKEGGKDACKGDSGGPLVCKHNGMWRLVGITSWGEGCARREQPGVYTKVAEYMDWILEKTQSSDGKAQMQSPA
Sequence of Plasma Kallikrein (P03952 20-390 partner limits assumed): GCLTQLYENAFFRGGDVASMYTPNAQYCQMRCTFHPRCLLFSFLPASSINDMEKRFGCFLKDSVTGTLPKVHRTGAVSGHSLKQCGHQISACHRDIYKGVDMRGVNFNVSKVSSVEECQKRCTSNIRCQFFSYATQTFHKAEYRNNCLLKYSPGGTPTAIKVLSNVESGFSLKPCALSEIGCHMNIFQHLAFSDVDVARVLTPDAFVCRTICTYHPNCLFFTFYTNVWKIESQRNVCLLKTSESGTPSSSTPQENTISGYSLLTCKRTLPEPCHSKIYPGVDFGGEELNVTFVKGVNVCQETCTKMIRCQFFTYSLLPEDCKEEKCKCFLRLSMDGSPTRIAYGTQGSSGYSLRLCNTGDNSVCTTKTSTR

| Structure (SMILES) | IC50 [1] [µM] | IC50 [2] [µM] | IC50 [3] [µM] | IC50 [4] [µM] | IC50 [5] [µM] | IC50 [6] [µM] | IC50 [7] [µM] | IC50 [8] [µM] | IC50 [9] [µM] | IC50 [10] [µM] |
| --- | --- | --- | --- | --- | --- | --- | --- | --- | --- | --- |
| N=C(N)c1cccc(CC(NS(=O)(=O)c2cccc(-c3ccc(Cl)cc3Cl)c2)c2nc3ccccc3s2)c1 (racemic) [3 (racemic), 3-[2-(1,3-Benzothiazol-2-yl)-2-{2′,4′-dichloro-[1,1′-biphenyl]-3-sulfonamido}ethyl]benzene-1-carboximidamide] | > 10 | > 10 | > 10 | < 10 | < 10 | > 10 | > 10 | > 10 | > 10 | > 10 |
| COc1ccc2nc(C(Cc3cccc(C(=N)N)c3)NS(=O)(=O)c3ccccc3)sc2c1 (stereo not drawn) [Compound 11, 3-[2-Benzenesulfonamido-2-(6-methoxy-1,3-benzothiazol-2-yl)ethyl]benzene-1-carboximidamide] | > 10 | > 10 | > 10 | > 10 |  | > 10 | > 10 | < 10 | > 10 | > 10 |
| N=C(N)c1cccc(CC(NS(=O)(=O)c2ccccc2)c2nc3ccccc3s2)c1 (racemic) [1 (racemic mixture, batch 1), 3-[2-Benzenesulfonamido-2-(1,3-benzothiazol-2-yl)ethyl]benzene-1-carboximidamide] | > 10 | > 10 | > 10 | > 10 | < 10 | > 10 | > 10 | > 10 | > 10 | > 10 |
| N=C(N)c1cccc(C[C@H](NS(=O)(=O)c2ccccc2)c2nnco2)c1 (single isomer, unassigned) [Compound 2 (enantiomer 1, batch 1), 3-[2-Benzenesulfonamido-2-(1,3,4-oxadiazol-2-yl)ethyl]benzene-1-carboximidamide] | > 10 | > 10 | > 10 | > 10 | > 10 | > 10 | > 10 | > 10 | > 10 | > 10 |
